Results as given in PubChem BioAssay AID2060605 (Molecular Pharmacology Branch, DTP, NCI, 2025).
pIC50: −log10 of the molar value.

Test system: 947758-054-R-J2-PDC spheroid growth, percent test/control
Experiment: Anticancer human tumor 947758-054-R-J2-PDC patient-derived colon adenocarcinoma cell line growth inhibition [CLK]
Conditions: spheroids with HUVEC and MSC; for pIC50: curve of first compound; for viability, T/C: stronger effect = lower value
Summary of the method: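 Patient-derived tumor cells grown as complex spheroids with HUVEC endothelial cells and mesenchymal stem cells, treated with drug combinations. Concentrations descend in half-log steps from near clinical Cmax, or from 10 microM if Cmax unknown.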

[1] = second compound 0.0316 µM, first compound 0.0316 µM
[2] = second compound 0.0316 µM, first compound 0.1 µM
[3] = second compound 0.1 µM, first compound 0.0316 µM
[4] = second compound 0.1 µM, first compound 0.1 µM
[5] = second compound 0.316 µM, first compound 0.0316 µM
[6] = second compound 0.316 µM, first compound 0.1 µM
[7] = second compound 1 µM, first compound 0.0316 µM
[8] = second compound 1 µM, first compound 0.1 µM
[9] = second compound 3.16 µM, first compound 0.0316 µM
[10] = second compound 3.16 µM, first compound 0.1 µM
[11] = second compound 10 µM, first compound 0.0316 µM
[12] = second compound 10 µM, first compound 0.1 µM
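Further: spheroids exposed to compounds for one week before readout.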
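Wherever viability, T/C is given: 100% = DMSO vehicle control wells.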

Work on `Cn1ncnc1[C@H]1c2n[nH]c(=O)c3cc(F)cc(c23)N[C@@H]1c1ccc(F)cc1` + CNC(=O)c1ccc(Nc2nc(OC3CCCC3)c3c(-c4ccc5nc(C)oc5c4)c[nH]c3n2)c(OC)c1 yielded a pIC50 (second compound 0.0316 µM) of less than 7.00, a pIC50 (second compound 0.1 µM) of less than 7.00 and a pIC50 (second compound 0.316 µM) of 7.44. For the same compound, the pIC50 (second compound 1 µM) was greater than 9.50, the pIC50 (second compound 3.16 µM) was greater than 9.50 and the pIC50 (second compound 10 µM) was greater than 9.50. The viability, T/C (second compound 0.0316 µM, first compound 0.000316 µM) was 78.7%, the viability, T/C (second compound 0.0316 µM, first compound 0.001 µM) was 102% and the viability, T/C (second compound 0.0316 µM, first compound 0.00316 µM) was 84.3%. For the same compound, the viability, T/C (second compound 0.0316 µM, first compound 0.01 µM) was 96.9%, the viability, T/C [1] was 90.4% and the viability, T/C [2] was 82.6%. For the same compound, the viability, T/C (second compound 0.1 µM, first compound 0.000316 µM) was 96.5%, the viability, T/C (second compound 0.1 µM, first compound 0.001 µM) was 88.6% and the viability, T/C (second compound 0.1 µM, first compound 0.00316 µM) was 81.3%. It also gave a viability, T/C (second compound 0.1 µM, first compound 0.01 µM) of 90.8%, a viability, T/C [3] of 84.8% and a viability, T/C [4] of 58.9%. It also gave a viability, T/C (second compound 0.316 µM, first compound 0.000316 µM) of 69.7%, a viability, T/C (second compound 0.316 µM, first compound 0.001 µM) of 65% and a viability, T/C (second compound 0.316 µM, first compound 0.00316 µM) of 70.4%. The viability, T/C (second compound 0.316 µM, first compound 0.01 µM) was 77.9%, the viability, T/C [5] was 51.4% and the viability, T/C [6] was 40.5%. It also gave a viability, T/C (second compound 1 µM, first compound 0.000316 µM) of 46.1%, a viability, T/C (second compound 1 µM, first compound 0.001 µM) of 45.1% and a viability, T/C (second compound 1 µM, first compound 0.00316 µM) of 42.3%. The viability, T/C (second compound 1 µM, first compound 0.01 µM) was 49.3%, the viability, T/C [7] was 46% and the viability, T/C [8] was 24.6%. The viability, T/C (second compound 3.16 µM, first compound 0.000316 µM) was 38.9%, the viability, T/C (second compound 3.16 µM, first compound 0.001 µM) was 31.4% and the viability, T/C (second compound 3.16 µM, first compound 0.00316 µM) was 38.4%. For the same compound, the viability, T/C (second compound 3.16 µM, first compound 0.01 µM) was 42.6%, the viability, T/C [9] was 38.6% and the viability, T/C [10] was 28.7%. It also gave a viability, T/C (second compound 10 µM, first compound 0.000316 µM) of 33.4%, a viability, T/C (second compound 10 µM, first compound 0.001 µM) of 31.8% and a viability, T/C (second compound 10 µM, first compound 0.00316 µM) of 32.9%. It also gave a viability, T/C (second compound 10 µM, first compound 0.01 µM) of 48%, a viability, T/C [11] of 28.9% and a viability, T/C [12] of 26.8%.

For `O=C(c1cc(Cc2n[nH]c(=O)c3ccccc23)ccc1F)N1CCN(C(=O)C2CC2)CC1` + CNC(=O)c1ccc(Nc2nc(OC3CCCC3)c3c(-c4ccc5nc(C)oc5c4)c[nH]c3n2)c(OC)c1, the pIC50 (second compound 0.0316 µM) was less than 5.00, the pIC50 (second compound 0.1 µM) was less than 5.00 and the pIC50 (second compound 0.316 µM) was less than 5.00. The pIC50 (second compound 1 µM) was less than 5.00, the pIC50 (second compound 3.16 µM) was 6.81 and the pIC50 (second compound 10 µM) was greater than 7.50. It also gave a viability, T/C [1] of 101%, a viability, T/C [2] of 97.3% and a viability, T/C (second compound 0.0316 µM, first compound 0.316 µM) of 96.3%. For the same compound, the viability, T/C (second compound 0.0316 µM, first compound 1 µM) was 93.5%, the viability, T/C (second compound 0.0316 µM, first compound 3.16 µM) was 113% and the viability, T/C (second compound 0.0316 µM, first compound 10 µM) was 80.9%. The viability, T/C [3] was 110%, the viability, T/C [4] was 102% and the viability, T/C (second compound 0.1 µM, first compound 0.316 µM) was 100%. It also gave a viability, T/C (second compound 0.1 µM, first compound 1 µM) of 99.4%, a viability, T/C (second compound 0.1 µM, first compound 3.16 µM) of 110% and a viability, T/C (second compound 0.1 µM, first compound 10 µM) of 73.7%. For the same compound, the viability, T/C [5] was 94.3%, the viability, T/C [6] was 94.8% and the viability, T/C (second compound 0.316 µM, first compound 0.316 µM) was 64.5%. For the same compound, the viability, T/C (second compound 0.316 µM, first compound 1 µM) was 71.5%, the viability, T/C (second compound 0.316 µM, first compound 3.16 µM) was 103% and the viability, T/C (second compound 0.316 µM, first compound 10 µM) was 65%. The viability, T/C [7] was 63.2%, the viability, T/C [8] was 53% and the viability, T/C (second compound 1 µM, first compound 0.316 µM) was 53.7%. For the same compound, the viability, T/C (second compound 1 µM, first compound 1 µM) was 64.1%, the viability, T/C (second compound 1 µM, first compound 3.16 µM) was 69.2% and the viability, T/C (second compound 1 µM, first compound 10 µM) was 35.8%. The viability, T/C [9] was 56.2%, the viability, T/C [10] was 43.6% and the viability, T/C (second compound 3.16 µM, first compound 0.316 µM) was 45.4%. For the same compound, the viability, T/C (second compound 3.16 µM, first compound 1 µM) was 52.7%, the viability, T/C (second compound 3.16 µM, first compound 3.16 µM) was 54% and the viability, T/C (second compound 3.16 µM, first compound 10 µM) was 37.4%. The viability, T/C [11] was 47.9%, the viability, T/C [12] was 40.9% and the viability, T/C (second compound 10 µM, first compound 0.316 µM) was 41.5%. The viability, T/C (second compound 10 µM, first compound 1 µM) was 34.4%, the viability, T/C (second compound 10 µM, first compound 3.16 µM) was 35.2% and the viability, T/C (second compound 10 µM, first compound 10 µM) was 35.1%.
